In brackets after ≈: the same amount, converted by molar mass.
Columns and labels:
Candida albicans [1] = type: functional, 0304103; details: time 24 hrs
Description: Synergetic antifungal activity against Candida albicans 0304103 assessed as fractional inhibitory concentration index incubated for 24 hrs in the presence of fluconazole by checkerboard microdilution method

Candida albicans [2] = assay: microbe, parasite or virus in culture; type: functional; details: 0304103
Description: Antifungal activity against Candida albicans 0304103 assessed as microbial growth inhibition

Histone deacetylase = assay: Inhibition of total HDAC in human HUVEC cells using Boc-Lys(Ac)-AMC as substrate preincubated for 12 hrs followed by substrate addition measured after 6 hrs by microtiter plate reader analysis; type: cell-based
Candida albicans [3] = assay: microbe, parasite or virus in culture; type: functional; details: 0304103, time 24 hrs
Description: Synergetic antifungal activity against Candida albicans 0304103 assessed as microbial growth inhibition incubated for 24 hrs in the presence of fluconazole by checkerboard microdilution method

in vitro = details: human, HUVEC cells
Description: Cytotoxicity against HUVECs assessed as inhibition of cell growth incubated for 48 hrs by CCK8 assay

Candida albicans [4] = assay: Antifungal activity against Candida albicans SC5314 assessed as fungal growth inhibition incubated for 24 hrs by broth dilution method; type: functional
HEL = assay: Antiproliferative activity against human HEL cells incubated for 48 hrs by CCK8 assay; type: functional, cell-based
Histone deacetylase 1 = Histone deacetylase 1 (Homo sapiens, UniProt Q13547); assay: Inhibition of full-length recombinant human HDAC1 (1 to 482 residues) expressed in baculovirus infected insect cells using […] as substrate incubated for 30 mins by fluorescence based analysis; design: species or system Insect cell
K562 = assay: Antiproliferative activity against human K562 cells incubated for 48 hrs by CCK8 assay; type: functional, cell-based; details: K562, 48 h
HL-60 = assay: Antiproliferative activity against human HL-60 cells incubated for 48 hrs by CCK8 assay; type: functional, cell-based; details: HL-60, 48 h
Cryptococcus neoformans = assay: Antifungal activity against Cryptococcus neoformans H99 assessed as fungal growth inhibition incubated for 24 hrs by broth dilution method; type: functional

Histone deacetylase 1, sequence (Q13547 whole entry, the tested form may be a part): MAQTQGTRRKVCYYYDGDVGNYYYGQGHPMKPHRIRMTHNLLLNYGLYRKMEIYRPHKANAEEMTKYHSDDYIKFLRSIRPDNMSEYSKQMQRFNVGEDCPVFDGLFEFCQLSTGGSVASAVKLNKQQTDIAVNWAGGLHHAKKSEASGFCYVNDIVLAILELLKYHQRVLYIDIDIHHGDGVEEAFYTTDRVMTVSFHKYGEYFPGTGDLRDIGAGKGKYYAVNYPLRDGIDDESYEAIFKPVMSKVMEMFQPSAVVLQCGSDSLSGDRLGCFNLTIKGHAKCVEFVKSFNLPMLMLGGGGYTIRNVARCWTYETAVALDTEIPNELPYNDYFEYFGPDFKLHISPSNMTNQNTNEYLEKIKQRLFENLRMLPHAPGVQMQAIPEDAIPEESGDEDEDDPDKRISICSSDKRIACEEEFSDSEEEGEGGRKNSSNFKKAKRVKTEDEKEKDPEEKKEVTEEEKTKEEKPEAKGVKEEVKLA

Row | SMILES | fractional inhibitory concentration index (FICI) (Candida albicans [1]) | MIC80 (Candida albicans [2]) [µg/mL] | IC50 (Histone deacetylase) [µM] | MIC80 (Candida albicans [3]) [µg/mL] | IC50 at 48 h (in vitro) [µM] | MIC80 (Candida albicans [4]) [µg/mL] | IC50 (HEL) [µM] | IC50 (Histone deacetylase 1) [µM] | IC50 (K562) [µM] | IC50 (HL-60) [µM] | MIC80 (Cryptococcus neoformans) [µg/mL]
1 | Cc1ccc(C2=N[C@@H](CC(=O)Nc3ccc(C(=O)NO)cc3)c3nnc(C)n3-c3ccccc32)cc1 | 0.078 | > 64 | 0.13 | 4 (≈ 8.32 µM) | 2.8 | > 64 | 0.39 | 51 | > 10 | 0.34 | 32 (≈ 66.6 µM)
2 | Cc1nnc2n1-c1ccc(Cl)cc1C(c1ccccc1Cl)=N[C@H]2CC(=O)Nc1ccc(/C=C/C(=O)NO)cc1 | 0.07 | > 64 | 0.035 | 4 (≈ 7.12 µM) | 7.3 | > 64 | 8.3 | 1.3 | 3.1 | 4.2 | 8 (≈ 14.2 µM)
3 | Cc1ccc(C2=N[C@@H](CC(=O)NCc3ccc(C(=O)NO)cc3)c3nnc(C)n3-c3ccccc32)cc1 | 0.14 | > 64 | 5.8 | 8 (≈ 16.2 µM) | 20 | > 64 | 7 | 0.89 | > 10 | > 10 | 32 (≈ 64.7 µM)
4 | Cc1nnc2n1-c1ccccc1C(c1ccc(Cl)cc1)=N[C@H]2CC(=O)Nc1ccc(C(=O)NO)cc1 | 31 | > 64 | 0.16 | 16 (≈ 31.9 µM) | 34 | > 64 | > 10 | 0.11 | > 10 | 0.87 | 32 (≈ 63.9 µM)
5 | Cc1nnc2n1-c1ccccc1C(c1ccccc1)=N[C@H]2CC(=O)Nc1ccc(CC(=O)NO)cc1 | 0.19 | > 64 | 6.5 | 8 (≈ 16.6 µM) | 24 | > 64 | > 10 | 0.73 | > 10 | 4.4 | 32 (≈ 66.6 µM)
6 | Cc1nnc2n1-c1ccccc1C(c1ccc(Cl)cc1)=N[C@H]2CC(=O)NCc1ccc(C(=O)NO)cc1 | 0.28 | > 64 | 2.7 | 16 (≈ 31.1 µM) | 23 | > 64 | > 10 | 0.56 | > 10 | 7.1 | 32 (≈ 62.1 µM)
7 | Cc1nnc2n1-c1ccccc1C(c1ccccc1)=N[C@H]2CC(=O)NCc1ccc(C(=O)NO)cc1 | 0.14 | > 64 | 2.8 | 8 (≈ 16.6 µM) | 17 | > 64 | > 10 | 0.25 | > 10 | 5.7 | 32 (≈ 66.6 µM)
8 | Cc1ccc(C2=N[C@@H](CC(=O)Nc3ccc(CC(=O)NO)cc3)c3nnc(C)n3-c3ccccc32)cc1 | 0.14 | > 64 | 3.8 | 8 (≈ 16.2 µM) | 33 | > 64 | > 10 | 2.9 | > 10 | 5.1 | 32 (≈ 64.7 µM)
9 | Cc1nnc2n1-c1sc3c(c1C(c1ccc(Cl)cc1)=N[C@H]2CC(=O)Nc1ccc(C(=O)NO)cc1)CCCC3 | 0.078 | > 64 | 0.047 | 4 (≈ 7.13 µM) | 2.6 | > 64 | 0.29 | 0.72 | 0.41 | 0.31 | 4 (≈ 7.13 µM)
10 | Cc1sc2c(c1C)C(c1ccc(Cl)cc1)=N[C@@H](CC(=O)OC(C)(C)C)c1nnc(C)n1-2 | >2 | > 64 | – | 64 (≈ 140 µM) | 0.58 | > 64 | 0.069 | – | 1.4 | 0.15 | > 64

Source: ChEMBL document CHEMBL5331104, “Discovery of BRD4-HDAC Dual Inhibitors with Improved Fungal Selectivity and Potent Synergistic Antifungal Activity against Fluconazole-Resistant Candida albicans” (J Med Chem, 2023)
